Series [1] deals with T1, Kappa-type opioid receptor (Homo sapiens, UniProt P41145). The series can be described thus: Agonist activity at human KOR expressed in HEK293 cells assessed as inhibition of forskolin-induced adenylyl cyclase-mediated cAMP accumulation after 30 mins by HTRF assay. Format: functional, cell-based. Background: Changes in cAMP serve as a functional read-out for many G protein-coupled receptors.

The target in series [2] is T2, Mu-type opioid receptor (Homo sapiens, UniProt P35372). Kind of series: Agonist activity at human MOR expressed in HEK293 cells assessed as inhibition of forskolin-induced adenylyl cyclase-mediated cAMP accumulation after 30 mins by HTRF assay. In kind it is functional, cell-based.
T2 sequence (P35372 whole entry): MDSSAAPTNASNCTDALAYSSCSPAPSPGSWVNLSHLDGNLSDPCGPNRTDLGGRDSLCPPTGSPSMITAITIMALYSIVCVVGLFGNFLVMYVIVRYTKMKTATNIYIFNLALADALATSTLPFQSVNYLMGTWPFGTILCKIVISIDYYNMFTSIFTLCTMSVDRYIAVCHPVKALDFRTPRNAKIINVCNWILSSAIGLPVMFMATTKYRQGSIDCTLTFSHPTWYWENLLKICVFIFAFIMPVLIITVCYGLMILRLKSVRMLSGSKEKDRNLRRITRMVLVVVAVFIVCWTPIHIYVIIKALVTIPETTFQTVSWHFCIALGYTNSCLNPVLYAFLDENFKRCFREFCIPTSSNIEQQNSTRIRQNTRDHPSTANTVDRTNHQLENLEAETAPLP
Series [3] has as its target T2, Mu-type opioid receptor. Kind of series: Displacement of [3H]naloxone from recombinant human MOR expressed in HEK cell membranes incubated for 60 mins. Background: Loss of bound radioactivity is the signal in a displacement assay; it reports binding, not function.
In series [4] the target is Delta-type opioid receptor (Homo sapiens, UniProt P41143). Kind of series: Agonist activity at human DOR expressed in HEK293 cells assessed as inhibition of forskolin-induced adenylyl cyclase-mediated cAMP accumulation after 30 mins by HTRF assay. Format: functional, cell-based.
Delta-type opioid receptor, sequence (P41143 whole entry): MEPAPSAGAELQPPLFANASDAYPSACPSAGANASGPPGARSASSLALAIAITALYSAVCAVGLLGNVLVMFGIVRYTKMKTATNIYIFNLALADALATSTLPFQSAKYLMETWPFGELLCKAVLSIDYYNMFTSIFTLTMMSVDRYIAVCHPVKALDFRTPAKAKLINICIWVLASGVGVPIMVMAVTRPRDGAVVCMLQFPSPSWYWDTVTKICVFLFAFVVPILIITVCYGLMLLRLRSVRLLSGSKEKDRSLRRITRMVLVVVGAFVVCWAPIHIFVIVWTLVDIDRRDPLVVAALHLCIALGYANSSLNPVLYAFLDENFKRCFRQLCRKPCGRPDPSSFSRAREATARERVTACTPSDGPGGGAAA
Series [5] deals with Mus musculus. Kind of series: Antinociceptive activity in B6 mouse assessed as AUC of thermal withdrawal effect at 3 mg/kg, iv measured at every 10 mins for 1 hr by tail flick assay. In kind it is functional, organism-based. For orientation: Thermal pain tests record how soon the animal reacts.
In series [6] the test system is Mus musculus. Kind of series: Antinociceptive activity in iv dosed B6 mouse assessed as increase in tail flick latency at 3 mg/kg, iv measured at every 10 mins for 1 hr. In kind it is functional.
Series [7] in a line: Drug uptake in […] mouse plasma at 3 mg/kg, iv measured after 0.8 hrs by LC-MS/MS analysis. Format: ADME, organism-based.
The target of series [8] is T2, Mu-type opioid receptor. The series can be described thus: Agonist activity at myc-tagged MOR (unknown origin) expressed in mouse AtT-20 cells harboring GIRK1/GIRK2 channels assessed as stimulation of membrane potential hyperpolarization at 1 uM by FLIPR assay. Format: cell-based.
The nature of series [9]: Drug uptake in […] mouse brain at 3 mg/kg, iv measured after 0.8 hrs by LC-MS/MS analysis. In kind it is ADME, organism-based. The note with it: read-out: Drug uptake.
Series [10] is described as follows: Ratio of drug level in brain to plasma in […] mouse at 3 mg/kg, iv measured after 0.8 hrs. In kind it is ADME, organism-based. The note with it: read-out: BPR.
Series [11] relates to Mus musculus. Kind of series: Antinociceptive activity in iv dosed B6 mouse assessed as increase in tail flick latency at 3 mg/kg, iv measured at every 10 mins for 1 hr in presence of opioid antagonist naloxone. In kind it is functional, organism-based.
For series [12], the target named is T2, Mu-type opioid receptor. Kind of series: Agonist activity at myc-tagged MOR (unknown origin) expressed in mouse AtT-20 cells harboring GIRK1/GIRK2 channels assessed as membrane potential hyperpolarization at 1 uM in presence of naloxone by FLIPR membrane potential. Format: cell-based.
Series [13] concerns the target T1, Kappa-type opioid receptor. The series can be described thus: Agonist activity at human KOR expressed in HEK293 cells assessed as inhibition of forskolin-induced adenylyl cyclase-mediated cAMP accumulation at 1 uM after 30 mins in presence of KOR antagonist nor-binaltorphimine by HTRF assay. Format: functional, cell-based.

Structures are written as SMILES. Active and inactive are the calls of the source. The rule behind the calls is not given here.

T1 sequence (P41145 whole entry): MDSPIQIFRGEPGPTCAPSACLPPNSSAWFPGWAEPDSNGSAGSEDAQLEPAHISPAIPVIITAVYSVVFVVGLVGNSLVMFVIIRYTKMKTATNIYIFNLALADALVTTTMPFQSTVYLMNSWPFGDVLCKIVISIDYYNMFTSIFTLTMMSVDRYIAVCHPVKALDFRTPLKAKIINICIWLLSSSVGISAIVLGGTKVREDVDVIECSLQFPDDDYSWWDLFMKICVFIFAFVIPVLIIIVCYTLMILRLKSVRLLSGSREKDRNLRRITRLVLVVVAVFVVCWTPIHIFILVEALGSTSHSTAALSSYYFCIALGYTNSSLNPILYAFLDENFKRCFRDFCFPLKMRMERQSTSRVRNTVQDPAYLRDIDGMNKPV

What is called IC50 is the midpoint of a concentration-inhibition curve. Usually Ki stands for the equilibrium dissociation constant of an inhibitor or competing ligand from its target. For `CCc1ccc(C(=O)NCC2NCCc3ccccc32)cc1` (configuration not stated), the IC50 in [1] is 570 nM; on Mu-type opioid receptor [2], 310 nM; in [4] (hek293) it was “Not Active”. The Imax worked out at 29% in series [1] and 63.9% at Mu-type opioid receptor [2]. For the same compound, the Ki at Mu-type opioid receptor [3] came to 4.65 nM.

As to `Cc1cccc(C(=O)NCC2NCCc3ccccc32)c1` (configuration not stated), the results for the IC50 (in [1]; at Mu-type opioid receptor [2]; in series [4] (hek293)) were 140 nM, 1270 nM and “Not Active”, respectively. In addition, the values for the Imax (in series [1]; at Mu-type opioid receptor [2]) were 26.6% and 68.3%, respectively.

In the case of `COc1ccc(C(=O)NCC2NCCc3ccccc32)cc1` (configuration not stated), the results for the half-maximal inhibitory concentration (IC50) (in [1]; on Mu-type opioid receptor [2]; in [4] (hek293)) were 50 nM, 1580 nM and “Not Active”, respectively. In addition, the Imax in series [1] was 21.8%.

In the case of `O=C(NCC1NCCc2ccccc21)c1ccc(Cl)cc1` (configuration not stated), the IC50 came out at 90 nM in series [1], 220 nM on Mu-type opioid receptor [2] and 4180 nM in series [4] (read-out: IC50). Also, the Imax was determined as 35.1% in series [1] and 24.1% in [4].

Regarding `Cc1ccc(C(=O)NCC2NCCc3ccccc32)cc1C` (configuration not stated), the IC50 in [1] is 8930 nM; at Mu-type opioid receptor [2], 290 nM; in series [4] (hek293), “Not Active”. For the same compound, the Imax in series [1] came out at 27%. Moreover, the Ki at Mu-type opioid receptor [3] is 36.4 nM.

On to `O=C(NCC1NCCc2ccccc21)c1ccc(Cl)c(Cl)c1` (configuration not stated), for which the IC50 is 810 nM in [1], 230 nM at Mu-type opioid receptor [2] and “Not Active” in series [4] (hek293). In addition, in series [1], the Imax worked out at 27.5%. Also, the Ki on Mu-type opioid receptor [3] worked out at 54.3 nM.

For the compound `CCc1ccc(C(=O)NCC2c3ccccc3CCN2C)cc1` (configuration not stated), the 50% inhibitory concentration (IC50) came out at 490 nM in series [1], 3280 nM on Mu-type opioid receptor [2] and 190 nM in series [4] (read-out: IC50). Moreover, the figures for the Imax (in series [1]; at Mu-type opioid receptor [2]; in [4]) were 26.3%, 61.9% and 22.1%, respectively. In addition, the inhibition constant (Ki) on Mu-type opioid receptor [3] was 2.27 nM.

In general, ED50 refers to the dose that gives a 50% effect, or the effect in half of the subjects. Take `CN1CCc2ccccc2C1CNC(=O)c1ccc(Cl)c(Cl)c1` (configuration not stated): in the series on Mus musculus [5], the AUC was 371 min.sec. Besides, the IC50 is 440 nM in [1], 50 nM at Mu-type opioid receptor [2] and “Not Active” in series [4] (hek293). In addition, the values for the Imax (in series [1]; at Mu-type opioid receptor [2]) were 28.3% and 69.5%, respectively. For the same compound, the ED50 with Mus musculus [6] is 1.06 mg/kg. Moreover, the concentration at 0.8 h came to 2610 ng/mL in [7] and 11700 ng/g in series [9]. The Activity at Mu-type opioid receptor [8] is 20%. In series [10], the Kp at 0.8 h turned out to be 4.5. The result (in the series with Mus musculus [11]; at Mu-type opioid receptor [12]; in series [13]) was inactive. Besides, the inhibitory constant (Ki) on Mu-type opioid receptor [3] is 6.91 nM.

On to `CCCCN1CCc2ccccc2C1CNC(=O)c1ccc(C)cc1` (configuration not stated), for which the 50% inhibitory concentration (IC50) is 780 nM in [1], 1330 nM at Mu-type opioid receptor [2] and “Not Active” in series [4] (hek293). Besides, the Imax in series [1] stood at 24.1%; at Mu-type opioid receptor [2], 69.3%.

On to `O=C(NCC1c2ccccc2CCN1S(=O)(=O)c1ccc(Br)cc1OC(F)(F)F)C1CCCCC1` (configuration not stated), for which the concentration at 0.8 h in series [7] worked out at 1290 ng/mL; in series [9], 1440 ng/g. Besides, in [10], the Kp at 0.8 h turned out to be 1.1.

For `C[C@@H](NC(=O)[C@@H](N)Cc1ccc(O)cc1)C(=O)NCC(=O)N(C)[C@@H](Cc1ccccc1)C(=O)NCCO`, the Imax on Mu-type opioid receptor [2] was 82.4%.

Turning to `O=C(NCC1NCCc2ccccc21)c1ccc(F)cc1` (configuration not stated), the half-inhibitory concentration (IC50) in [1] came out at 18600 nM; on Mu-type opioid receptor [2], 830 nM; in [4] (read-out: IC50), 40 nM. Further, the Imax in series [1] was 38.9%; in series [4], 22%.

On to `Cc1ccc(C(=O)NCC2c3ccccc3CCN2C)cc1C` (configuration not stated), for which, in the series on Mus musculus [5], the AUC amounted to 268 min.sec. Further, the results for the IC50 (in [1]; on Mu-type opioid receptor [2]; in series [4] (hek293)) were 80 nM, 80 nM and “Not Active”, respectively. Moreover, the Imax in series [1] amounted to 34.6%; at Mu-type opioid receptor [2] it was 69.3%. For the same compound, the values for the concentration at 0.8 h in series [7] and in series [9] were 1460 ng/mL and 7420 ng/g, respectively. Moreover, the Activity at Mu-type opioid receptor [8] stood at 20%. Further, the Kp at 0.8 h in [10] amounted to 5.1. For the same compound, the outcome in the series on Mus musculus [11] and on Mu-type opioid receptor [12] was inactive. Besides, the Ki on Mu-type opioid receptor [3] amounted to 30.8 nM.

For the compound `Cc1ccc(C(=O)NCC2c3ccccc3CCN2CCCl)cc1` (configuration not stated), the IC50 in [1] is 2940 nM; on Mu-type opioid receptor [2] it was 200 nM; in series [4] (hek293), “Not Active”. Further, the Imax in series [1] was determined as 30%; at Mu-type opioid receptor [2] it was 67.8%.

With `Cc1ccc(C(=O)NCC2c3ccccc3CCN2C)cc1` (configuration not stated), the IC50 was 140 nM in series [1], 650 nM at Mu-type opioid receptor [2] and “Not Active” in [4] (hek293). Also, the Imax stood at 27.1% in series [1] and 72.4% at Mu-type opioid receptor [2]. Further, the inhibition constant Ki on Mu-type opioid receptor [3] is 5.28 nM.

As for `O=C(NCC1NCCc2ccccc21)c1cccc(Cl)c1` (configuration not stated), the values for the concentration for half-maximal inhibition (IC50) (in [1]; on Mu-type opioid receptor [2]; in series [4] (read-out: IC50)) were 1120 nM, 2030 nM and 170 nM, respectively. Moreover, the values for the Imax (in series [1]; on Mu-type opioid receptor [2]; in series [4]) were 26.9%, 78.2% and 21.1%, respectively.

For the compound `O=C(NCC1NCCc2ccccc21)c1ccc(OC(F)(F)F)cc1` (configuration not stated), the half-maximal inhibitory concentration (IC50) in series [1] came to 260 nM; on Mu-type opioid receptor [2], 1220 nM; in series [4] (read-out: IC50), 40 nM. Moreover, the Imax in [1] is 38.2%; in [4], 22.7%.

For `Cc1ccc(C(=O)NCC2NCCc3ccccc32)cc1` (configuration not stated), the inhibition constant (Ki) on Mu-type opioid receptor [3] stood at 6.47 nM.

The record behind these values is ChEMBL document CHEMBL3992491, “Discovery, structure-activity relationship studies, and anti-nociceptive effects of N-(1,2,3,4-tetrahydro-1-isoquinolinylmethyl)benzamides as novel opioid receptor agonists” (Eur J Med Chem, 2017).
